This note sets out measurements from PubChem BioAssay AID540271 (Broad Institute, 2011).

Structures are written as SMILES. The source made the active and inactive calls. The rule behind the calls is not given here.

The assay concerns S. cerevisiae expressing PfHSP40, growth rescue, plate reader. Kind of assay: S cerevisiae expressing PfHSP40, growth rescue, cherry pick dose confirmatory, plate reader (AID 540271).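 Note: yeast growth read after three days of incubation at 30 °C.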
In the case of `O=C(CSc1ccc(-c2ccccn2)nn1)NC1CCCC1`, the AC50 is 11.1 µM. Regarding `Cc1cc(Nc2ccccc2)nn1C(=O)c1ccccc1`, the AC50 was 5.94 µM. On to `O=C(Nc1ccc(Cl)cc1C(=O)Nc1ccc(Br)cn1)c1ccco1`, for which the half-maximal activity concentration (AC50) was 3.64 µM.

Turning to `COC(=O)/C=C\C(=O)Nc1cccc([N+](=O)[O-])c1`, the AC50 was 1.83 µM.

On to `CCCCCCC(Cl)(Cn1ccnc1)c1ccccc1` (stereo not drawn), for which the AC50 is 6.48 µM.

As to `O=C(NNC(=O)c1cc(Cl)ccc1O)c1cccc(S(=O)(=O)N2CCOCC2)c1`, the AC50 is 5.28 µM. In the case of `Nc1nonc1C(=O)NCCN=Cc1cc(Cc2ccccc2)cc(Br)c1O`, the AC50 was 0.642 µM. As for `CCCC(C)Sc1nc2c([nH]1)c(=S)n(C)c(=O)n2C` (stereo not drawn), the AC50 is 8.18 µM. In the case of `O=C(NOC(=O)c1ccccc1)c1ccccc1`, the half-maximal activity concentration (AC50) is 2.11 µM. The same measure for `O=C(Sc1cccc2cccnc12)c1ccccc1Br`: 6.63 µM; for `O=C(NCC1CC1(Cl)Cl)Nc1ccc(Cl)c(Cl)c1` (stereo not drawn): 5.73 µM. As for `CC(C)(C)n1nc(-c2ccc(Cl)cc2)c2c(N)ncnc21`, the AC50 is 1.56 µM.

For the compound `CCCCCCN1N=C(C)C(C(=O)c2ccc(Cl)cc2)C1=O` (stereo not drawn), the AC50 is 3.23 µM. The same measure for `C[C@H](O)[C@H]1CC[C@H]2[C@@H]3CCC4=CC(=O)CC[C@]4(C)[C@H]3CC[C@]12C`: 6.85 µM.

For the compound `Cc1ccc(-c2nn(C(C)(C)C)c3ncnc(N)c23)cc1`, the AC50 is 1.28 µM. In the case of `CC(C)CSc1n[nH]c(=S)s1` it was 6.48 µM; in that of `COc1ccc(N(C)S(=O)(=O)c2ccc(Cl)c(C(=O)NNC(=O)c3ccccc3O)c2)cc1`, 2.52 µM. The same measure for `COC(=O)C1=NN(C(=O)c2cccc(Br)c2)C(O)(c2ccc(Cl)cc2)C1` (stereo not drawn): 5.82 µM; for `CC1CCc2c(C(=O)Nc3ccccn3)csc2C1` (stereo not drawn): 9.29 µM; for `O=C(CSc1ccc(-c2ccccn2)nn1)NCc1ccccc1`: 6.96 µM. `Cc1cccc(Oc2nc(-c3ccccn3)nc3ccccc23)c1`: the concentration at half-maximal activity (AC50) was 6.77 µM. For `CC1(C(=O)OCC(=O)Nc2ccc3ccccc3c2)CC1(Cl)Cl` (stereo not drawn), the AC50 was 9.6 µM. `CCn1c2ccc(C)cc2c2nc3cc(C(=O)O)ccc3nc21`: the concentration at half-maximal activity (AC50) is 2.57 µM. Regarding `Cc1nc(SCc2ccc(OCCC(C)C)cc2)n[nH]1`, the half-maximal activity concentration (AC50) is 3.08 µM. The same measure for `Cc1ccc(S(=O)(=O)Nc2ccc(O)c3cccnc23)cc1`: > 12 µM (inactive); for `Oc1c(CN2CCCC2)cc(COCc2ccccc2)c2cccnc12`: 5.55 µM; for `O=c1[nH]cc(F)c(=O)[nH]1`: 0.562 µM. The same measure for `O=C1c2ccccc2-n2c1nc1ccccc1c2=O`: 1.83 µM. The same measure for `O=S(=O)(Nc1ccccc1)c1ccc(Oc2ncc(C(F)(F)F)cc2Cl)cc1`: 6.09 µM; for `CC(C)N1CCN(c2ccc(OC[C@H]3CO[C@](Cn4cncn4)(c4ccc(Cl)cc4Cl)O3)cc2)CC1`: 2 µM.

Regarding `C=CS(=O)(=O)c1sc(Cl)c(N2CCOCC2)c1[N+](=O)[O-]`, the half-maximal activity concentration (AC50) was 1.91 µM. The same measure for `O=C(O)c1ccc(N/N=C/C=C/c2ccccc2)cc1`: 3.72 µM. In the case of `Cc1ccc(S(=O)(=O)N(C(=O)c2ccncc2)c2ccc(OC(=O)c3ccncc3)cc2)cc1` it was 1.83 µM; in that of `COc1ccc2c(c1)OC[C@H]1[C@H]2N2C(=O)c3cc(Cl)ccc3NC(=O)[C@@]2(C)[C@H]1c1ccccc1`, 4.63 µM. For `CCn1nc(/C=C/c2ccccc2)nc2c(=O)n(C)c(=O)nc1-2`, the AC50 was 2.36 µM.

For `O=c1[nH]c(=O)n(C2OC(CO)C(O)C2O)cc1F` (stereo not drawn), the AC50 was 5.04 µM. For `C=CCc1ccc(O)c(-c2ccc(O)c(CC=C)c2)c1`, the concentration at half-maximal activity (AC50) was 4.8 µM. `CC1(C)C2CCC1(C)C(OC(=O)c1ccc(O)cc1)C2` (stereo not drawn): the half-maximal activity concentration (AC50) was 4.38 µM.

As for `O=[N+]([O-])c1ccc(Sc2cccc[n+]2[O-])c2nonc12`, the half-maximal activity concentration (AC50) was 2.43 µM. The same measure for `O=C(CSc1ccc(-c2ccccn2)nn1)NCc1ccc(F)cc1`: 4.86 µM; for `CCC(C)c1ccc(NC(=S)NCCn2cc(Br)cn2)cc1` (stereo not drawn): 10.1 µM.

As to `O=C(NCc1ccncc1)c1ccccc1Nc1ccc(SC(F)F)cc1`, the half-maximal activity concentration (AC50) was 5.31 µM. With `Cc1ccc(Sc2cc(C)nc(-c3ccccn3)n2)cc1`, the AC50 is 3.51 µM. The same measure for `CC(C)(C)n1nc(Cc2cccc3ccccc23)c2c(N)ncnc21`: 5.46 µM. In the case of `O=C(CSc1nnc(-c2ccccc2O)n1Cc1ccccc1)NNC(=O)c1ccccc1O` it was 3.94 µM; in that of `Cc1ccc(C(C[N+](=O)[O-])c2c(N)n(C)c(=O)n(C)c2=O)cc1` (stereo not drawn), 6.03 µM. With `CCCn1c2ccccc2c2cc(C(=O)O)ccc21`, the half-maximal activity concentration (AC50) was 7.09 µM. The same measure for `CCCn1nc(C(=O)N2CCN(S(=O)(=O)c3ccc(C)c(C)c3)CC2)c2ccccc2c1=O`: 6.13 µM; for `CCC1=NN(C(=O)c2cccc(Br)c2)C(O)(c2ccc(Br)cc2)C1` (stereo not drawn): 5.92 µM. For the compound `O=C(CSc1ccc(-c2ccccn2)nn1)NC1CCCCC1`, the concentration at half-maximal activity (AC50) was 4.21 µM. In the case of `CC1CCN(c2ccc3c(c2)S(=O)(=O)c2ccccc2C3=O)CC1`, the AC50 is 9.89 µM.

Turning to `Cc1oc2c(c1C(=O)c1ccccc1)C(=O)C(=O)c1ccccc1-2`, the AC50 is 5.65 µM. Turning to `O=c1c(O)cccc2cc(O)c(O)c(O)c12`, the half-maximal activity concentration (AC50) was 3.63 µM. On to `O=C1c2ccccc2NC(c2ccc(-c3cccc([N+](=O)[O-])c3)o2)N1O` (stereo not drawn), for which the AC50 was 4.69 µM.

For `O=C(O)CSc1nc(-c2ccc(Cl)cc2)nc2c1oc1ccccc12`, the concentration at half-maximal activity (AC50) is 6.02 µM.

Regarding `O=C(NNC(=O)c1cc(Cl)ccc1O)c1ccc(NS(=O)(=O)c2cccs2)cc1`, the AC50 is 5.61 µM. The same measure for `COc1cc2cnc(-c3ccccc3)c(C(=O)c3ccc(F)cc3)c2cc1OC`: 4.57 µM.

As to `c1ccc(Cn2cc(-c3cccnc3)cn2)cc1`, the AC50 is 1.62 µM.

As a reminder, the AC50 is the concentration at which the activity in the assay is half-maximal.
